Where a name gives a salt, the structure may show the parent alone.
Legend:
[1] = system: patients with MF; assay: Safety / adverse events in the clinical studies (31 subjects); assay type: in vivo
Description: Safety. […] Four SAEs attributed to Compound 1 (all Grade 3), including painful splenomegaly, headache, nausea and vomiting, and heart failure. There were 139 AEs of all grades attributed to Compound 1. The most common AEs across the 31 subjects from both of the above studies were thrombocytopenia (11 subjects, 35%), anemia (3 subjects, 10%) and nausea (1, 3%). The most common grade 3/4 AEs attributed to Compound 1 were Anemia (6 subjects, 19%) and neutropenia (3 subjects, 10%).
Management of Study Toxicities. Adverse event intensity will be evaluated using the National Cancer Institute (NCI) Common Terminology Criteria for Adverse Events (CTCAE) version 4.03, published 14 Jun. 2010.

[2] = system: patients with myelofibrosis; assay: Phase 2B clinical trial of Compound 1 in myelofibrosis (Example 2); assay type: in vivo, human
Method: A multi-center, open label, dose-range finding study to assess the safety, optimally effective dosing rules, steady-state pharmacokinetics and pharmacodynamics of Compound 1 orally once daily in patients with myelofibrosis was conducted in a Phase 1/2a study. • Primary objectives were to evaluate, in MF patients the effect of Compound 1 on: Safety and tolerability • Pharmacokinetics (Phase 1/2a only) • Reduction in spleen volume
This study initiated as a Phase 1/2a study assessing the safety of the starting dose, an 85 day duration of treatment, and the pharmacokinetic and pharmacodynamic effects of Compound 1, with transition to a Phase 2b study incorporating changes supported by the earlier pharmacokinetic and pharmacodynamic studies and safety assessments. This study consisted of two treatment periods: the Initial Treatment Period (ITP), followed by the Additional Treatment Period (ATP). Patients commenced enrolment in the Phase 2b portion of the study, in which the ITP has been extended such that patients were treated daily for 169 days. The ATP, also extended, offered treatment to qualifying patients for an additional 169 days.
Initial Treatment Period. During the ITP, patients initially returned for study assessments twice weekly for the first week (ITP Days 0, 3 and 7); post-dosing of 3 patients at the new Ds, the DSMC convened to assess the necessity of the Day 3 visit. Patients returned weekly for the next 7 weeks (ITP Days 14, 21, 28, 35, 42, 49 and 56), at least bi-weekly for 8 weeks (ITP Days 70, 84, 98 and 112) and then monthly for 8 weeks (ITP Days 140 and 168). It was anticipated that by Week 8 (Day 56) patients will have achieved a stable dose, with weekly titrations no longer necessary. For the exceptional patient whose dose had not stabilized, weekly visits continued at the PI's discretion (note: bi-weekly visits may also continue post Day 112). On Days 84 and 168, patients underwent abdominal magnetic resonance imaging (MRI), or computerized tomography (CT) if the patient was not a candidate for MRI. On Day 168, bone marrow sampling was also required. Prior to or at the Day 168 visit, but ideally at the Day 140 visit for logistical purposes, a ‘qualification’ assessment was made to determine whether the patient is deriving clinical benefit (defined as not meeting progressive disease criteria and safely tolerating Compound 1; this definition applies throughout document and will not be repeated with each reference to clinical benefit). Such patients qualified for entry into the ATP, a transition which was anticipated to occur without interruption in dosing. Patients not deriving clinical benefit, or who achieve complete response (CR), partial response (PR) or clinical improvement (CI) and subsequently relapse the equivalent of treatment failures, discontinued Compound 1 and undergo End of Treatment (EoT), pre-End of Study (pre-EoS) and End of Study (EoS) visits.
Initial Treatment Period (ITP). Treatment began on Day 0 at the Ds of 0.5 mg/kg QD for all patients entering the Phase 2b portion of the study. Dose-adjustments could be made at each clinic visit (with the exception of Day 3), with dose-titration, either upward or downward, contingent on the comparison of hematology values from the prior visit, as dictated by the rules below. The Dpi was anticipated to be ≤1.2 mg/kg QD; however, this was not the upper limit for titration purposes as the dose needed to achieve a therapeutic effect will vary among patients and may change over time. The platelet titration target expected to be associated with a clinically significant therapeutic effect was a platelet count of ≥50,000 to ≤75,000/μL (50-75×10^9/L). Titration and re-challenge rules based on evaluation of platelet, absolute neutrophil (ANC) and hemoglobin (Hgb) counts are noted below. […]

[3] = system: somatic mutations in myeloid neoplasm genes (JAK2, CALR, MPL, ASXL1 etc.); assay: Sequencing of somatic mutations, variant allele frequency (VAF) in treated patients (Example 3); assay type: in vivo, human
Description: The following characterize the sequencing protocol: • Samples: Germline (buccal or hair) and “Tumor” (bone marrow, peripheral blood, granulocytes) • Target enrichment: 11,736 hybridization probes in IDT AML panel targeting 261 genes (˜6300 exons) recurrently mutated in myeloid neoplasms • Illumina sequencing: 2×150 bp paired-end sequencing; ˜10 million pairs sequenced per sample • Aiming for sequencing depth >500; Actual: >1000 for >90% of samples • Analysis: Burrows-Wheeler alignment (BWA)=>VARSCAN2 genotyper=>IGV for CALR, etc. • Cutoffs for somatic calls: Sequencing Depth: >20 Mutant (or Variant) Allele Frequency (VAF): >15% • Annotation: All calls submitted to CADD (Combined Annotation Dependent Depletion) at University of Washington • CADD score cutoff >20 identifies the top 1% of the most deleterious mutations

[4] = Non-clinical studies of acute toxicity; assay type: in vivo; conditions: even at extremely high doses (human equivalent dose (HED) ˜20-40 mg/kg)
[5] = Phase 2b patients at Week 12, n=14

**Q.** Which results are given for `CN1CCN(C(=O)[C@H](CCCN[C@@H]2C[C@H]2c2ccc(F)cc2)NC(=O)c2ccc(-n3ccnn3)cc2)CC1` [Compound 1, N-[(2S)-5-{[(1R, 2S)-2-(4-fluorophenyl)cyclopropyl]amino}-1-(4-methylpiperazin-1-yl)-1-oxopentan-2-yl]-4-(1H-1,2,3-triazol-1-yl)benzamide, bis-tosylate salt]?
**A.** subjects with grade 3/4 Anemia attributed to Compound 1 ([1]; 31 subjects): 19%; subjects with grade 3/4 neutropenia attributed to Compound 1 ([1]; 31 subjects): 10%; subjects with anemia (most common AEs) ([1]; 31 subjects from both studies): 10%; subjects with nausea (most common AEs) ([1]; 31 subjects from both studies): 3%; subjects with thrombocytopenia (most common AEs) ([1]; 31 subjects from both studies): 35%; tolerability ([1]; MF patients): well tolerated; SAEs attributed to Compound 1 ([1]; all Grade 3: painful splenomegaly, headache, nausea and vomiting, heart failure): Four; AEs of all grades attributed to Compound 1 ([1]; human, in vivo): 139; deaths or dose-limiting toxicities ([1]; throughout the course of the study): no deaths or dose-limiting toxicities; patients with a decrease in spleen volume [2, 5]: 86%; patients with a spleen volume reduction of ≥20% [2, 5]: 29%; patients with a spleen volume reduction of ≥35% [2, 5]: 14%; median change in spleen volume to Wk 12 ([2]; Phase 2b patients, n=14): −15%; patients with a decrease in symptom score ([2]; all patients at Week 12, n=32): 78%; patients with a reduction in symptom score of ≥50% ([2]; all patients at Week 12, n=32): 25%; patients showing a decrease in some or all somatic mutations ([3]; 22 patients): 32%; patients with increased VAFs ([3]; 22 patients): 14%; patients with stable VAFs ([3]; 22 patients): 55%; progression to AML ([3]; human, in vivo): No progression to AML; new mutations ([3]; patients followed up to 550+ days): No new mutations identified; acute toxicity in non-clinical studies [4]: no evidence

Reference: patent US20210386733A1, “LYSINE-SPECIFIC HISTONE DEMETHYLASE INHIBITORS FOR THE TREATMENT OF MYELOPROLIFERATIVE NEOPLASMS” (Imago Biosciences, Inc., priority 2019, published 2021)
